Results taken from article PMC12926040, “ADP-ribose is a competitive inhibitor of methanol dehydrogenases from Bacillus methanolicus” (The Journal of Biological Chemistry, 2025).
Values belong to the molecule of their own block, whether it stands above or below them.

What was measured:
BmMDH2 [1] = target: T1, BmMDH2 (Bacillus methanolicus, UniProt I3E949); test: Effects of NAM, AMP and ADPR (0.3 mM each) on BmMDH2 activity; assay type: biochemical, Bacillus methanolicus MGA3; settings: 3 mM NAD+, 40 mM ethanol
[2] = test system: BmMDH2 free of metal ions; test: EDTA treatment of BmMDH2 and recovery of activity with metal ions; assay type: biochemical, Bacillus methanolicus MGA3
Description: To further characterize the specific activity of BmMDH2 containing different metal ions, the purified BmMDH2 was treated with EDTA to remove the metal ions it coordinated during expression or purification. The protein was incubated with 10 equivalents of EDTA in glycine-NaOH buffer (100 mM, pH 9.5) on the ice for 1 hour. Subsequently, the EDTA was removed from the protein using the HiTrap desalting column (Cytiva, CAT#17-1408-01). […] The BmMDH2 free of metal ions at 10 μM was incubated in glycine-NaOH buffer (100 mM, pH 9.5) containing 1 mM of various metal ions on ice for 1 h, followed by the analysis of the activity. […] Overall, the above results indicated the optimum metal ion for BmMDH2 activity was Mn^2+, which was also supplied in the rest of the research.
(§1) Fig. S12 The effect of metal ions on the activity of BmMDH2. a, The effect of metal ions on the activity of BmMDH2. The purified BmMDH2 at 10 μM was incubated with 1 mM of various metal ions on ice for 1 h, the enzyme activities were measured using 50 mM propanol as substrate at 37 °C. The activity of BmMDH2 incubated in the absence of metal ion was taken as 100%. Data are means ± SDs of three measurements. b. The recovery activity of metal ions-free BmMDH2 replenished with various metal ions. The metal ions in BmMDH2 were chelated with EDTA. The activity of BmMDH2 with Mn^2+ replenishment was taken as 100%. Data are means ± SDs of three measurements.

BmMDH2 [3] = target: T1, BmMDH2; test: Effect of metal ions on the activity of purified BmMDH2; assay type: biochemical; settings: 1 mM metal ion, on ice 1 h; 50 mM propanol, 37 °C
Description: As a first step, different metal ions were directly incubated with BmMDH2 to determine their impact on its activity. The purified BmMDH2 was diluted to 10 μM in glycine-NaOH buffer (100 mM, pH 9.5) containing 1 mM of various metal ions. After incubation on ice for 1 h, the enzymatic activities were measured in glycine-NaOH buffer (100 mM, pH 9.5) containing 3 mM NAD^+, 1 μM BmMDH2, 0.1 mM various metal ions and 50 mM propanol at 37 °C.
as §1, with “The” for “Fig. S12 The effect of metal ions on the activity of BmMDH2. a, The effect of metal ions on the activity of BmMDH2. The”

[4] = Hydrolysis of NAD+ in glycine-NaOH buffer pH 9.5 at 25 °C (HPLC); assay type: physicochemical
Description: NAD^+ (3 mM) was incubated with (black) or without (blue) 10 nM ACT in glycine-NaOH buffer (pH 9.5, 5 mM MgCl2) at 25 °C for 60 min. Unincubated NAD^+ (red) served as a control. Compounds were identified via LC-MS. […] Data are presented as means ± SDs (n = 3). C, degradation of ACT-treated NAD^+ in glycine-NaOH buffer (pH 9.5) at 25 °C. ACT was removed by ultrafiltration before analysis. D, ADPR content in NAD^+ from different suppliers. […] E, schematic of the reactions during ACT incubation with NAD^+.
Fig. S5 The hydrolysis rate of NAD^+ at 25 °C. NAD^+ was dissolved in glycine-NaOH buffer (pH 9.5, 100 mM) at a concentration of 3 mM and incubated at 25 °C. Samples were withdrawn at various time intervals and analyzed by HPLC. The residual NAD^+ was quantified according to the standard curves of NAD^+.

BmMDH2 [5] = target: T1, BmMDH2; test: BmMDH2 activation by ACT, NADH formation monitored at 340 nm; assay type: biochemical; settings: final NAD+ raised by 2.9 mM after […]; 42 μM/min before; 50 nM ACT
Description: Figure 1 ACT-catalyzed conversion of NAD^+ into a compound that activates BmMDH2.A, effect of ACT concentration on BmMDH2 activation. The formation of NADH was monitored at 340 nm, with 100 nM BmMDH2 in glycine-NaOH buffer (pH 9.5) containing 0 to 125 nM ACT, 3 mM NAD^+, 20 mM ethanol, 5 mM MgCl2 and 0.5 mM MnCl2. Data for the initial 10 min are highlighted in the right panel. Data were from a single experiment. B, effects of the following treatments on BmMDH2 activation: preincubated ACT & NAD^+ (red), preincubated ACT & BmMDH2 (blue), ultrafiltrate of preincubated ACT & NAD^+ (green), and ultrafiltrate of ACT (purple) or NAD^+ (cyan) solutions. Preincubations were performed in glycine-NaOH buffer (pH 9.5) with 5 mM MgCl2 and 0.5 mM MnCl2 at 25 °C for 30 min. Ethanol, BmMDH2, or NAD^+ was subsequently added to achieve final concentrations of 10 nM ACT, 20 mM ethanol, 3 mM NAD^+, and 200 nM BmMDH2. For ultrafiltration, preincubated samples were filtered (10 kDa cutoff, Millipore), and the flowthrough was used for activation assays. Data represent means ± SD (n = 3). C, effect of NAD^+ concentration on BmMDH2 activation. Activity was measured using 100 nM BmMDH2 in glycine-NaOH buffer (pH 9.5) with 50 nM ACT, 0 to 20 mM NAD^+, 5 mM MgCl2, and 0.5 mM MnCl2. Data were from a single experiment. D, time-course of BmMDH2 activation. Reaction were performed in 200 μl glycine-NaOH buffer (100 mM, pH 9.5) with 5 mM MgCl2, 0.5 mM MnCl2, 0.25 mM NAD^+, 0.1 μM BmMDH2, 20 mM ethanol, and 50 nM ACT. Fresh NAD^+ (4 μl, 150 mM) was added twice during the reaction. Data were from a single experiment. E, catalytic rates of BmMDH2 were calculated from the slopes of the data in panel D. Additional replicates of the experiments shown in panels A, C, and D are provided in Fig. S4. […]
The catalytic processes of MDHs were monitored by measuring NADH absorbance at 340 nm using a Tecan SPARK UV-Vis plate reader (Tecan Austria GmbH) at 25 °C. […]

[6] = test system: NC(=O)c1ccc[n+]([C@@H]2O[C@H](COP(=O)(O)OP(=O)(O)OC[C@H]3O[C@@H](n4cnc5c(N)ncnc54)[C@H](O)[C@@H]3O)[C@@H](O)[C@H]2O)c1; test: purified protein, by the assay type; settings: other: in the presence of 10 nM ACT, 40 mM ethanol, pH 8.0, 25.0 °C
[7] = target: NAD-dependent methanol dehydrogenase 2 from Bacillus methanolicus MGA3 (BmMDH2) (Bacillus methanolicus MGA3); test: crystal structure; BmMDH2 apo (2.8 Å), with ADPR (2.6 Å) and with NAD+ (2.6 Å); sitting-drop vapor diffusion at 18 °C, 30 mg/ml protein, Bis-Tris propane pH 6.0-7.0, PEG 3350
[8] = target: activator protein ACT from Bacillus methanolicus MGA3 (Nudix hydrolase, ADPRase) (Bacillus methanolicus MGA3) (UniProt Q8KP10); test: crystal structure; apo-ACT in two conformations of loop 132-146 (2.0 and 2.4 Å); 90 mg/ml protein in 20 mM Tris-HCl pH 7.5, 150 mM NaCl; reservoir MES pH 5.2 with PEG 400, or MMT pH 5.0 with PEG 1500

T1 sequence (I3E949 entry or part of it): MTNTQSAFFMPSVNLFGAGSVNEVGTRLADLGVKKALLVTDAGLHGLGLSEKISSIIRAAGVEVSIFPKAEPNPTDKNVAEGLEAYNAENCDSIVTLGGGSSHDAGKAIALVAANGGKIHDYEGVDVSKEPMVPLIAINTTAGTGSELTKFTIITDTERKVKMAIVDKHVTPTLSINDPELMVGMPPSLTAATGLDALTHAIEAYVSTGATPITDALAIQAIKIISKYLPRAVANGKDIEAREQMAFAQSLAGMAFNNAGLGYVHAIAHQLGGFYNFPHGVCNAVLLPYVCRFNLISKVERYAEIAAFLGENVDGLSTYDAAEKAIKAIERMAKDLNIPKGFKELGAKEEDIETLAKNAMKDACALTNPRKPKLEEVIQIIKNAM

Molecule: Nc1ncnc2c1ncn2[C@@H]1O[C@H](COP(=O)(O)O)[C@@H](O)[C@H]1O [AMP]
effect on BmMDH2 activity (in words) (BmMDH2 [1]): Neither AMP nor NAM significantly influenced activation

Molecule: [Ca+2] [Ca^2+]
recovery of activity of metal-free BmMDH2 ([2]; 1 mM metal ion, on ice 1 h): didn’t restore the activity
effect of metal ion on BmMDH2 activity (BmMDH2 [3]): slightly decreased

effect of metal ion on BmMDH2 activity (BmMDH2 [3]): significantly enhanced
Molecule: [Co+2] [Co^2+]

Molecule: [Cu+2] [Cu^2+]
recovery of activity of metal-free BmMDH2 ([2]; 1 mM metal ion, on ice 1 h): didn’t restore the activity
effect of metal ion on BmMDH2 activity (BmMDH2 [3]): significantly inhibited

Molecule: O=C(O)CN(CCN(CC(=O)O)CC(=O)O)CC(=O)O [EDTA, reference compound]
BmMDH2 activity after EDTA treatment ([2]; 10 equivalents of EDTA, pH 9.5, on ice 1 hour): completely lost

effect of metal ion on BmMDH2 activity (BmMDH2 [3]): negligible effect
Molecule: [Fe+2] [Fe^2+]

Molecule: [Mg+2] [Mg^2+]
recovery of activity of metal-free BmMDH2 ([2]; 1 mM metal ion, on ice 1 h): didn’t restore the activity
effect of metal ion on BmMDH2 activity (BmMDH2 [3]): slightly decreased

Molecule: [Mn+2] [Mn^2+]
activity of metal-free BmMDH2 replenished with metal ion ([2]; 1 mM metal ion, on ice 1 h): 1.04 ± 0.02 U/mg
effect of metal ion on BmMDH2 activity (BmMDH2 [3]): significantly enhanced

half-life at 3 mM ([4]; glycine-NaOH buffer, glycine-NaOH pH 9.5, 25 °C, read-out: t1/2 of NAD+ hydrolysis (converted)): 64 h
rate constant for NAD+ hydrolysis ([4]; glycine-NaOH pH 9.5, 25 °C): 0.011 h⁻¹
increase of ADPR and NAM on incubation of NAD+ ([4]; glycine-NaOH pH 9.5, 60 min): about 40%
catalytic rate of activated BmMDH2 after additional NAD+ dose (BmMDH2 [5]): 4.8 µM/min
Molecule: NC(=O)c1ccc[n+]([C@@H]2O[C@H](COP(=O)(O)OP(=O)(O)OC[C@H]3O[C@@H](n4cnc5c(N)ncnc54)[C@H](O)[C@@H]3O)[C@@H](O)[C@H]2O)c1 [NAD^+]

Molecule: NC(=O)c1cccnc1 [NAM, nicotinamide]
effect on BmMDH2 activity (in words) (BmMDH2 [1]): Neither AMP nor NAM significantly influenced activation

Molecule: [Ni+2] [Ni^2+]
effect of metal ion on BmMDH2 activity (BmMDH2 [3]): slightly decreased

Molecule: [Zn+2] [Zn^2+]
recovery of activity of metal-free BmMDH2 ([2]; 1 mM metal ion, on ice 1 h): didn’t restore the activity
effect of metal ion on BmMDH2 activity (BmMDH2 [3]): significantly inhibited

Molecule: BmMDH2S101G (Bacillus methanolicus MGA3; S101G)
Km [6]: 6.2 ± 0.8 mM

stoichiometry N [7]: 10
Molecule: NAD-dependent methanol dehydrogenase 2 from Bacillus methanolicus MGA3 (BmMDH2) (enzyme)

stoichiometry N [8]: 2
Molecule: activator protein ACT from Bacillus methanolicus MGA3 (Nudix hydrolase, ADPRase) (from UniProt Q8KP10 1-183) (enzyme)
